Marks after values point to notes of the source that are not given here.
Columns and labels:
[1] = system: T. cruzi parasites in J774 macrophage host cells; experiment: Minimum trypanocidal concentration (MTC) assay; type: cell-based, Trypanosoma cruzi
[2] = system: T. cruzi parasites in C2C12 host cells; experiment: High-content imaging-based screening (HCS) assay; type: cell-based; conditions: Trypanosoma cruzi; reduces parasite load in C2C12 cells by 90% relative to untreated controls; read-out: T. cruzi growth inhibition HCS EC90
TcCYP51 = TcCYP51 (Trypanosoma cruzi, UniProt Q7Z1V1); experiment: biochemical; conditions: UV-vis binding assay; lower limit of KD ~5 nM; read-out: TcCYP51 activity in vitro KD
Sequence of TcCYP51 (Q7Z1V1 whole entry): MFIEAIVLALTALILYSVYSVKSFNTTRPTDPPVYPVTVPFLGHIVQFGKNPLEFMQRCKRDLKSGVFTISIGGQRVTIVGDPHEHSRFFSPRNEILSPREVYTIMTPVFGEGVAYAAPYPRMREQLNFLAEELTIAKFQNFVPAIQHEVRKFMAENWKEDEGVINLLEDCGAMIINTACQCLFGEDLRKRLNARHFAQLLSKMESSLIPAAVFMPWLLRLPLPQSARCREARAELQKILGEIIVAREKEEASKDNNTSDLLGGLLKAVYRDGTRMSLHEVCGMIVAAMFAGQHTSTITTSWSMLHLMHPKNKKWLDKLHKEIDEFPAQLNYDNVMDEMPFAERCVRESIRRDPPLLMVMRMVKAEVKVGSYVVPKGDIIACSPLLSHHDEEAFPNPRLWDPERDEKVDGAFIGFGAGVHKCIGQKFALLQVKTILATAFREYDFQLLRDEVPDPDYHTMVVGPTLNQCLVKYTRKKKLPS

cruzain = cruzain (Trypanosoma cruzi, UniProt P25779); experiment: biochemical; conditions: for IC50: kinact/Ki, read-out: cruzain activity (n.a. = not active)
Sequence of cruzain (P25779 123-337 limits assumed): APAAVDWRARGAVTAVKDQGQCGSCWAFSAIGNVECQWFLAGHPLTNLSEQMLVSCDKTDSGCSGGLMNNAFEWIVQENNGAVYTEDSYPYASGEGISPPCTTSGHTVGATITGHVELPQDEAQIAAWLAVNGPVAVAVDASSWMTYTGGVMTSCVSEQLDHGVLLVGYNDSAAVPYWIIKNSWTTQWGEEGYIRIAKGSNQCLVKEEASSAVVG

CYP2C19 [3] = target: T1, CYP2C19 (Homo sapiens, UniProt P33261); experiment: CYP reversibility study (pre-incubation with or without NADPH), 2C19; type: in vitro ADME; conditions: for mechanism of CYP2C19 inhibition: NADPH-dependent shift of IC50
T1 sequence (P33261 whole entry): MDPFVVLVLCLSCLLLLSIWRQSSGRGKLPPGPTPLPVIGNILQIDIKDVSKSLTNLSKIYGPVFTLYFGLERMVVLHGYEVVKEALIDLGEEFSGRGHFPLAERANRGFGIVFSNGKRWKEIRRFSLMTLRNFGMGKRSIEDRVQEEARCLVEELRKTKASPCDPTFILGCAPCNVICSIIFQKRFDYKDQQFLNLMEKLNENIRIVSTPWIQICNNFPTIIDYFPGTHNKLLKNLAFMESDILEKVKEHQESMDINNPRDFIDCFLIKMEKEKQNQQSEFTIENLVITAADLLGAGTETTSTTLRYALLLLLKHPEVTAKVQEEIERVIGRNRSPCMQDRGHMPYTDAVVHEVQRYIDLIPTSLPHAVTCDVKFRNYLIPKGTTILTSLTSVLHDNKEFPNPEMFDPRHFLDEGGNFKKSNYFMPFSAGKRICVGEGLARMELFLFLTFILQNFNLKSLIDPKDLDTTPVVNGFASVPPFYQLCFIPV
Protocol: (§1) CYP Inhibition and reversibility studies
(§2) Mammalian CYP inhibition values and reversibility studies were conducted by WuXi AppTech
(§3) (Tianjin, China 300457) according to standard protocols. […]

[4] = target: T2, ≈35 kDa host-cell protein (cathepsin B) (Mus musculus, UniProt P10605); experiment: Competitive labeling of host cell (C2C12) proteins with probe 9; type: cell-based; conditions: C2C12 cells
T2 construct: endogenous in cells; host or cells: C2C12 mouse myoblasts
T2 sequence (P10605 80-333 limits assumed): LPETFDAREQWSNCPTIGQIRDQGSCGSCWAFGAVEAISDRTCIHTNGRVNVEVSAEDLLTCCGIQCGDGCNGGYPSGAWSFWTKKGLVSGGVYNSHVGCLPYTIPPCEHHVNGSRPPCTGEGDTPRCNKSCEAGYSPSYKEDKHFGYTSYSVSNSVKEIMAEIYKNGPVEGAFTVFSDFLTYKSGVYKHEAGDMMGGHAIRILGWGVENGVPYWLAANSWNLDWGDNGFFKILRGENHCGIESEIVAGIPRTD
Protocol: The discovery of a potential mammalian off-target of probe 9 (and presumably also of 1) was of considerable interest, so we explored this finding further. To determine if this protein was also a target of 1 and 4, we conducted competition experiments in C2C12 cells. […]
Cellular labeling assay and “click” chemistry: C2C12 cells (1.5 × 10^6 cells) were pre-treated with competitor compounds in culture media (1 mL, DMEM with 10% FBS) for 1 hour at 37 °C.
Then additional competitor compound and 9 (2 µM) were added in culture media (1 mL), and the cells were incubated for an additional hour. The cells were then pelleted, washed with phosphate-buffered saline pH 7.4 (2 × 1 mL), and lysed with 1% SDS in phosphate-buffered saline (400 µL). The denatured lysates were sonicated to reduce viscosity, centrifuged to give pellets of the insoluble material, and normalized for total protein content. The normalized lysates (22 µL, 3 mg/mL) were mixed with TAMRA azide 10 (0.5 µL, 5 mM), TCEP (0.5 µL, 50 mM, pH ~7.0), TBTA ligand in 1:4 DMSO/t-butyl alcohol (1.5 µL, 1 mM), and CuSO4 (0.5 µL, 50 mM).
Reactions were incubated at room temperature for one hour and then resolved by SDS-PAGE.
The resulting gel was scanned for fluorescence (Typhoon Imaging System, Molecular Dynamics) and coomassie stained. […]

CYP2C9 = CYP2C9 (Homo sapiens, UniProt P11712); experiment: Mammalian CYP inhibition panel, 2C9; type: in vitro ADME
Sequence of CYP2C9 (P11712 whole entry): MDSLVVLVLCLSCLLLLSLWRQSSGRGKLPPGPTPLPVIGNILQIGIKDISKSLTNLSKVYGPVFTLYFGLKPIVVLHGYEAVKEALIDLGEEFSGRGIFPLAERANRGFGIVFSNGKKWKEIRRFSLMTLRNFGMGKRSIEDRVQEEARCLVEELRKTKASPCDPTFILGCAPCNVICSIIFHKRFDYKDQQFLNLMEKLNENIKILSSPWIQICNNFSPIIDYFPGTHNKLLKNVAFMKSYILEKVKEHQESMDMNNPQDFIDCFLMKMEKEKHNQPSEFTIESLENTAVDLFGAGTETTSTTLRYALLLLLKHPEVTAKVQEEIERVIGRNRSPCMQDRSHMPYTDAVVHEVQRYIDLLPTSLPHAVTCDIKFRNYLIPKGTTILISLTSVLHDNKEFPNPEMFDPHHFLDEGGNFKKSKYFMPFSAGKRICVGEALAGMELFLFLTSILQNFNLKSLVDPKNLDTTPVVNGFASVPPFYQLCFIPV

CYP2D6 = CYP2D6 (Homo sapiens, UniProt P10635); experiment: Mammalian CYP inhibition panel, 2D6; type: in vitro ADME
Sequence of CYP2D6 (P10635 whole entry): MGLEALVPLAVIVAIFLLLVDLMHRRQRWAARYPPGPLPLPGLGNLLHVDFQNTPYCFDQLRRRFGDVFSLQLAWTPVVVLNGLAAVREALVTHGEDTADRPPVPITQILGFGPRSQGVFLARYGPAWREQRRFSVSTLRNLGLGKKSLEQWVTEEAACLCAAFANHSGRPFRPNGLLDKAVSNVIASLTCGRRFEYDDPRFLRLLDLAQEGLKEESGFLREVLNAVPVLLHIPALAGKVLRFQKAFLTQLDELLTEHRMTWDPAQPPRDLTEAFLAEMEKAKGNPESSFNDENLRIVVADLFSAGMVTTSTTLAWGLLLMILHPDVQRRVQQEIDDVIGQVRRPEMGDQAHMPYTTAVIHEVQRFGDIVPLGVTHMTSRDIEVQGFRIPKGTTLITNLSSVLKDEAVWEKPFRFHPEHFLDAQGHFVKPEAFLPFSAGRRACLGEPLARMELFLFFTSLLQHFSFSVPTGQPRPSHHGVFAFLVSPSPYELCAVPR

CYP3A4 [5] = target: T3, CYP3A4 (Homo sapiens, UniProt P08684); design: method as in PMID 11038163; conditions: cited from earlier work
T3 sequence (P08684 whole entry): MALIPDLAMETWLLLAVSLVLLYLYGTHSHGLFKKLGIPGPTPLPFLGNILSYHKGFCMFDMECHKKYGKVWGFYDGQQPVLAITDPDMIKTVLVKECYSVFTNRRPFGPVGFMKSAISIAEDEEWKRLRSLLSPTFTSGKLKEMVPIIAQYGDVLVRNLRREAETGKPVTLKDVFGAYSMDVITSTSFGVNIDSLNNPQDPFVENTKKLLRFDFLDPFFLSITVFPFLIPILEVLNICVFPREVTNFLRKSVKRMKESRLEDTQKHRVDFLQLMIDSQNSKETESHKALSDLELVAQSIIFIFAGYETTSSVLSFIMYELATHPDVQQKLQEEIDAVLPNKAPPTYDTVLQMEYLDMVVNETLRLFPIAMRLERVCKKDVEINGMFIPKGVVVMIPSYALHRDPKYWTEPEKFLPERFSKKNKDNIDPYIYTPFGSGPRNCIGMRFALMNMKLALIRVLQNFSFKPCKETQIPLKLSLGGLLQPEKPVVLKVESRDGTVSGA

CYP3A4 [6] = target: T3, CYP3A4; experiment: CYP reversibility study (pre-incubation with or without NADPH), 3A4; type: in vitro ADME; conditions: for mechanism of CYP3A4 inhibition: NADPH-dependent shift of IC50
Protocol: Given the similar IC50 values for 1 and 4 against CYP3A4, we were curious to determine whether 4 is an irreversible inhibitor of this enzyme, as is the case for 1 [30].
as §1, §2, §3

CYP2C19 [7] = target: T1, CYP2C19; experiment: Mammalian CYP inhibition panel, 2C19; type: in vitro ADME
CYP3A4 [8] = target: T3, CYP3A4; experiment: Mammalian CYP inhibition panel, 3A4; type: in vitro ADME
P-glycoprotein (P-gp) = conditions: stated as known, no reference given; cited from earlier work
CYP1A2 = target: T4, CYP1A2 (Homo sapiens, UniProt P05177); experiment: Mammalian CYP inhibition panel, 1A2; type: in vitro ADME
T4 sequence (P05177 1-516): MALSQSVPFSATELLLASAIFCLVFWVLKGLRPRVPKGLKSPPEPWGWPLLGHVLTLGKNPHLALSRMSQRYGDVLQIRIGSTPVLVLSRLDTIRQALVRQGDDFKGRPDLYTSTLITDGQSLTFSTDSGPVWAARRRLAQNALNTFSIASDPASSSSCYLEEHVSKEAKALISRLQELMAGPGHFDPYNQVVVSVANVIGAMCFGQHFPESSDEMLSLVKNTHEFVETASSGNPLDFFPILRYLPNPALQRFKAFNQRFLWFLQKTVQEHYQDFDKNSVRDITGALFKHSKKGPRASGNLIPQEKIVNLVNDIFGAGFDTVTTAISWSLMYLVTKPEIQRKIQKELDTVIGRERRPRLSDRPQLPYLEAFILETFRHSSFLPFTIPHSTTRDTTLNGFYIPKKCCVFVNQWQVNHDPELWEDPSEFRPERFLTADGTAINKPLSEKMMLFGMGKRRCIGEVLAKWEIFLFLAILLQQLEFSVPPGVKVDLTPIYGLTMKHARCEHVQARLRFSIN

[9] = system: TcCYP51 (ergosterol biosynthesis) in intracellular T. cruzi parasites; experiment: Ergosterol biosynthesis / sterol composition of intracellular T. cruzi by GC/MS; type: cell-based, Trypanosoma cruzi; design: key to TcCYP51 cellular activity (Y/N): Y: Compound affects ergosterol biosynthesis at indicated concentration as determined by GC/MS analysis; cellular activity (Y/N, conc.); conditions: for effect on sterol (lipid) composition of intracellular T. cruzi: concentrations below MTC
[10] = system: CYP1A2, CYP2C9, CYP2C19, CYP2D6, CYP3A4 (average over the panel of mammalian CYP enzymes); experiment: Mammalian CYP inhibition panel, average over panel; type: in vitro ADME; conditions: human; average of 1A2, 2C9, 2C19, 2D6, 3A4; read-out: average IC50 across the CYP panel
[11] = clears J774 host cells of parasites at day 40, following 28 days of treatment
[12] = pretreatment with 10 μM for one hour
[13] = pre-incubation at either 1 μM or 10 μM for one hour
[14] = affects ergosterol biosynthesis at 0.1 μM
[15] = affects ergosterol biosynthesis at 2.0 μM

Row | Compound | T. cruzi growth inhibition MTC [1, 11] | EC90 [2] [nM] | Kd (TcCYP51) [nM] | IC50 (cruzain) [µM] | kinact/KI (cruzain) [M⁻¹ s⁻¹] | effect on sterol (lipid) composition of intracellular T. cruzi [9] | further results
1 | CNC(=O)[C@H](Cc1ccc(C)cc1)NC(=O)c1ccncc1 [Compound 12] | >10 µM | > 10000 | 620 ± 260 | > 50 |  |  | antitrypanosomal effect ([1]; highest concentration examined (10 μM)): no antitrypanosomal effect
2 | CN1CCN(C(=O)N[C@@H](Cc2ccccc2)C(=O)N[C@H](/C=C/S(=O)(=O)c2ccccc2)CCc2ccccc2)CC1 [Compound 1, reference compound] | 8 µM | 100 | > 2000 |  | 118000 | little effect on sterol composition | mechanism of CYP2C19 inhibition (CYP2C19 [3]): reversible inhibitors; IC50 (CYP2C19 [3]; pre-incubation with NADPH): 5540 nM; IC50 (CYP2C19 [3]; pre-incubation without NADPH): 8220 nM; competition for labeling of the ≈35 kDa band by probe 9 [4, 12]: successfully blocked labeling; IC50 (CYP2C9): 32 µM; IC50 (CYP2D6): 26 µM; type of CYP3A4 inhibition (CYP3A4 [5]): mechanism-based (irreversible) inhibitor of CYP3A4; mechanism of CYP3A4 inhibition (CYP3A4 [6]): irreversible inhibition; IC50 (CYP3A4 [6]; pre-incubation with NADPH): 5.9 nM; IC50 (CYP3A4 [6]; pre-incubation without NADPH): 1080 nM; IC50 (CYP2C19 [7]): 7.6 µM; IC50 (CYP3A4 [8]): 1700 nM; P-glycoprotein (P-gp) substrate (P-glycoprotein (P-gp)): substrate of the drug transporter P-glycoprotein (P-gp); IC50 (CYP1A2): 24 µM; TcCYP51 cellular activity (Y/N) ([9]; affects ergosterol biosynthesis at 1.6 μM): N (1.6 μM)
3 | CC1CCC(C(=O)N[C@H](Cc2c[nH]c3ccccc23)C(=O)Nc2ccncc2)CC1 (stereo partly drawn) [Compound 5, reference compound] | ≤10^d μM |  |  |  |  |  | TcCYP51 cellular activity (Y/N) ([9]; affects ergosterol biosynthesis at 5.0 μM): Y (5.0 μM)
4 | Cc1ccc(C[C@H](NC(=O)c2ccncc2)C(=O)N[C@@H](CCc2ccccc2)CCS(=O)(=O)c2ccccc2)cc1 [Compound 8] | 0.25 µM | 110 | ≤ 5 | > 50 |  | effects very similar to those observed in posaconazole treated parasites | competition for labeling of the ≈35 kDa band by probe 9 [4, 13]: did not compete for labeling by 9; times more potent than 4 in the MTC assay ([1]; relative to compound 4): 2–4 times; TcCYP51 cellular activity (Y/N) [9, 14]: Y (0.1 μM)
5 | CN1CCN(C(=O)N[C@@H](Cc2ccccc2)C(=O)N[C@@H](CCc2ccccc2)CCS(=O)(=O)c2ccccc2)CC1 [Compound 6] | >10 µM | > 10000 | > 2000 | > 50 |  | no significant change in lipid composition | competition for labeling of the ≈35 kDa band by probe 9 [4, 13]: did not compete for labeling by 9; TcCYP51 cellular activity (Y/N) [9, 15]: N (2.0 μM)
6 | O=C(Cn1ccnc1[N+](=O)[O-])NCc1ccccc1 [BNZ, benzindazole, reference compound] | 10 µM | 7200 |  |  |  |  | 
7 | CC[C@@H]([C@H](C)O)n1ncn(-c2ccc(N3CCN(c4ccc(OC[C@@H]5CO[C@@](Cn6cncn6)(c6ccc(F)cc6F)C5)cc4)CC3)cc2)c1=O [POSA, posaconazole, reference compound] | 0.003 µM | 2700 |  |  |  | increase in the relative abundance of TcCYP51 substrates lanosterol (f) and eburicol (h) | TcCYP51 cellular activity (Y/N) [9, 14]: Y (0.1 μM)
8 | Cc1ccc(C[C@H](NC(=O)c2ccccn2)C(=O)N[C@H](/C=C/S(=O)(=O)c2ccccc2)CCc2ccccc2)cc1.O=C(O)C(F)(F)F [Compound 3] | 8 µM | 1850 | > 2000 |  | 16000 | no significant change in lipid composition | competition for labeling of the ≈35 kDa band by probe 9 [4, 12]: successfully blocked labeling; TcCYP51 cellular activity (Y/N) [9, 15]: N (2.0 μM)
9 | C#CCN1CCN(C(=O)N[C@@H](Cc2ccccc2)C(=O)N[C@H](/C=C/S(=O)(=O)c2ccccc2)CCc2ccccc2)CC1 [Compound 9] |  | 17 |  |  | 81500 |  | T. cruzi growth inhibition MTC ([1]; performed in BESM host cell rather than J774 cells): 5^e μM
10 | Cc1ccc(C[C@H](NC(=O)c2ccncc2)C(=O)N[C@H](C)c2ccccc2)cc1 [Compound 13] |  | 3900 | 75 ± 26 | > 50 |  |  | T. cruzi growth inhibition MTC ([1]; read at day 12 following 7 days treatment): 1^f μM
11 | O=C(N[C@@H](Cc1ccccc1)C(=O)N[C@H](/C=C/S(=O)(=O)c1ccccc1)CCc1ccccc1)c1ccccn1 [Compound 2] | 10 µM |  |  |  | 120000 |  | 
12 | Cc1ccc(C[C@H](NC(=O)c2ccccn2)C(=O)N[C@@H](CCc2ccccc2)CCS(=O)(=O)c2ccccc2)cc1 [Compound 7] | >10 µM | > 10000 | > 2000 | > 50 |  | no significant change in lipid composition | TcCYP51 cellular activity (Y/N) [9, 14]: N (0.1 μM)
13 | Cc1ccc(C[C@H](NC(=O)c2ccncc2)C(=O)N[C@H](/C=C/S(=O)(=O)c2ccccc2)CCc2ccccc2)cc1 [Compound 4, N-[(2S)-1-[[(E,3S)-1-(benzenesulfonyl)-5-phenylpent-1-en-3-yl]amino]-3-(4-methylphenyl)-1-oxopropan-2-yl]pyridine-4-carboxamide] | 0.6 µM | 100 | ≤ 5 |  | 67300 | effects very similar to those observed in posaconazole treated parasites | mechanism of CYP2C19 inhibition (CYP2C19 [3]): reversible inhibitors; IC50 (CYP2C19 [3]; pre-incubation with NADPH): 300 nM; IC50 (CYP2C19 [3]; pre-incubation without NADPH): 170 nM; competition for labeling of the ≈35 kDa band by probe 9 [4, 12]: successfully blocked labeling; fold more potent than 1 in the MTC assay ([1]; relative to compound 1): about 10 fold; IC50 (CYP2C9): 5.5 µM; IC50 (CYP2D6): 2.7 µM; mechanism of CYP3A4 inhibition (CYP3A4 [6]): reversible inhibition; IC50 (CYP3A4 [6]; pre-incubation with NADPH): 117 nM; IC50 (CYP3A4 [6]; pre-incubation without NADPH): 46 nM; IC50 (CYP2C19 [7]): 3.4 µM; IC50 (CYP3A4 [8]): 800 nM; IC50 (CYP1A2): 22 µM; TcCYP51 cellular activity (Y/N) ([9]; affects ergosterol biosynthesis at 0.2 μM): Y (0.2 μM); IC50 [10]: ~7 µM

From publication PMC3566858 (Beilstein Journal of Organic Chemistry, 2013)
